Results reported in ChEMBL document CHEMBL2434940, “Synthesis and antitumor activities of novel α-aminophosphonates dehydroabietic acid derivatives” (Bioorg Med Chem Lett, 2013).
Calls of active or inactive are those of the source. The calls are words filed in the database; no cut-off is given here.

Experiments:
[1] = tested on: NCI-H460; assay: Cytotoxicity against human NCI-H460 cells after 48 hrs by MTT assay; format: functional, cell-based; conditions: NCI-H460, 48 h
[2] = tested on: A549; assay: Cytotoxicity against human A549 cells after 48 hrs by MTT assay; format: functional, cell-based; conditions: A549, 48 h
[3] = tested on: HepG2; assay: Cytotoxicity against human HepG2 cells after 48 hrs by MTT assay; format: functional, cell-based; conditions: HepG2, 48 h
[4] = tested on: SK-OV-3; assay: Cytotoxicity against human SKOV3 cells after 48 hrs by MTT assay; format: functional, cell-based; conditions: SK-OV-3, 48 h
[5] = tested on: NCI-H460; assay: Cell cycle arrest in human NCI-H460 cells assessed as accumulation at S phase at IC50 by propidium iodide staining-based FACS flow cytometric analysis relative to control; format: functional
[6] = tested on: NCI-H460; assay: Cell cycle arrest in human NCI-H460 cells assessed as accumulation at G2 phase at IC50 by propidium iodide staining-based FACS flow cytometric analysis relative to control; format: functional
[7] = tested on: NCI-H460; assay: Cell cycle arrest in human NCI-H460 cells assessed as accumulation at G1 phase at IC50 by propidium iodide staining-based FACS flow cytometric analysis relative to control; format: functional
[8] = tested on: NCI-H460; assay: Induction of apoptosis in human NCI-H460 cells assessed as apoptotic ratio at 5 uM after 12 hrs by Annexin V-FITC and propidium iodide staining-based FACS flow cytometric analysis relative to control; format: functional
[9] = tested on: NCI-H460; assay: Induction of apoptosis in human NCI-H460 cells assessed as apoptotic ratio at 3 uM after 12 hrs by Annexin V-FITC and propidium iodide staining-based FACS flow cytometric analysis relative to control; format: functional
[10] = tested on: NCI-H460; assay: Induction of apoptosis in human NCI-H460 cells after 12 hrs by Annexin V-FITC and propidium iodide staining-based FACS flow cytometric analysis; format: functional, cell-based
[11] = tested on: NCI-H460; assay: Induction of apoptosis in human NCI-H460 cells assessed as early apoptotic cells at 5 uM after 24 hrs by Annexin V-FITC and propidium iodide staining-based FACS flow cytometric analysis (reference value: 3.8%); format: functional
[12] = tested on: NCI-H460; assay: Induction of apoptosis in human NCI-H460 cells assessed as necrotic/late apoptotic cells at 5 uM after 24 hrs by Annexin V-FITC and propidium iodide staining-based FACS flow cytometric analysis (reference value: 1.9%); format: functional
[13] = tested on: NCI-H460; assay: Induction of apoptosis in human NCI-H460 cells assessed as early apoptotic cells at 5 uM after 12 hrs by Annexin V-FITC and propidium iodide staining-based FACS flow cytometric analysis (reference value: 3.8%); format: functional
[14] = tested on: NCI-H460; assay: Induction of apoptosis in human NCI-H460 cells assessed as necrotic/late apoptotic cells at 5 uM after 12 hrs by Annexin V-FITC and propidium iodide staining-based FACS flow cytometric analysis (reference value: 1.9%); format: functional
[15] = tested on: NCI-H460; assay: Induction of apoptosis in human NCI-H460 cells assessed as loss of mitochondria membrane potential at 5 uM after 12 to 24 hrs by JC-1 staining-based fluorescence microscopic analysis; format: functional, cell-based
[16] = tested on: NCI-H460; assay: Induction of apoptosis in human NCI-H460 cells at 5 uM after 12 to 24 hrs by Hoechst 33258 staining-based fluorescence microscopic analysis; format: functional, cell-based
[17] = tested on: NCI-H460; assay: Cytotoxicity against human NCI-H460 cells at 5 uM after 12 to 24 hrs by AO/EB staining-based fluorescence microscopic analysis; format: cell-based; conditions: nci-h460, 5 µM
[18] = tested on: NCI-H460; assay: Induction of apoptosis in human NCI-H460 cells assessed as cell budding at 5 uM after 12 to 24 hrs by AO/EB staining-based fluorescence microscopic analysis; format: functional
[19] = tested on: NCI-H460; assay: Induction of apoptosis in human NCI-H460 cells assessed as pycnosis at 5 uM after 12 to 24 hrs by AO/EB staining-based fluorescence microscopic analysis; format: functional, cell-based
[20] = tested on: NCI-H460; assay: Induction of apoptosis in human NCI-H460 cells assessed as membrane blebbing at 5 uM after 12 to 24 hrs by AO/EB staining-based fluorescence microscopic analysis; format: functional, cell-based
[21] = tested on: NCI-H460; assay: Induction of apoptosis in human NCI-H460 cells assessed as early apoptotic cells at 45 uM after 24 hrs by Annexin V-FITC and propidium iodide staining-based FACS flow cytometric analysis (reference value: 1.5%); format: functional
[22] = tested on: NCI-H460; assay: Induction of apoptosis in human NCI-H460 cells assessed as necrotic/late apoptotic cells at 45 uM after 24 hrs by Annexin V-FITC and propidium iodide staining-based FACS flow cytometric analysis (reference value: 0.8%); format: functional
[23] = tested on: NCI-H460; assay: Induction of apoptosis in human NCI-H460 cells assessed as loss of mitochondria membrane potential at 45 uM after 24 hrs by JC-1 staining-based fluorescence microscopic analysis; format: functional, cell-based

For `CCOP(=O)(OCC)C(NC(=S)NC(=O)[C@]1(C)CCC[C@]2(C)c3ccc(C(C)C)cc3CC[C@@H]12)c1cccc(Cl)c1` (stereo partly specified), the IC50 [1] was 36.4 µM, the IC50 [2] was 26.4 µM and the IC50 [3] was greater than 50 µM. It also gave an IC50 [4] of 19.7 µM.
`CCOP(=O)(OCC)C(NC(=S)NC(=O)[C@]1(C)CCC[C@]2(C)c3ccc(C(C)C)cc3CC[C@@H]12)c1cccc(Br)c1` (stereo partly specified) gave an IC50 [1] of 14.8 µM, an IC50 [2] of 19.5 µM and an IC50 [3] of 15.2 µM. The IC50 [4] was 20.7 µM.
For `CCOP(=O)(OCC)C(NC(=S)NC(=O)[C@]1(C)CCC[C@]2(C)c3ccc(C(C)C)cc3CC[C@@H]12)c1cccc(C)c1` (stereo partly specified), the IC50 [1] was 17.8 µM, the IC50 [2] was 18.8 µM and the IC50 [3] was 37.3 µM. The IC50 [4] was 16.6 µM.
In the case of `CCOP(=O)(OCC)C(NC(=S)NC(=O)[C@]1(C)CCC[C@]2(C)c3ccc(C(C)C)cc3CC[C@@H]12)c1cccc(F)c1` (stereo partly specified), the IC50 [1] is reported as 27.5 µM, the IC50 [2] is reported as 24.4 µM and the IC50 [3] is reported as 31.6 µM. It also gave an IC50 [4] of 13.7 µM.
For `CCOP(=O)(OCC)C(NC(=S)NC(=O)[C@]1(C)CCC[C@]2(C)c3ccc(C(C)C)cc3CC[C@@H]12)c1cccc2ccccc12` (stereo partly specified), the IC50 [1] was 32.6 µM, the IC50 [2] was 28.3 µM and the IC50 [3] was greater than 50 µM. For the same molecule, the IC50 [4] was 19.1 µM.
`CCOP(=O)(OCC)C(NC(=S)NC(=O)[C@]1(C)CCC[C@]2(C)c3ccc(C(C)C)cc3CC[C@@H]12)c1ccccc1OC` (stereo partly specified) gave an Activity [5] of 23.49%, an Activity [6] of 13.7% and an Activity [7] of 62.8%. For the same molecule, the Activity [8] was 51.5%, the Activity [9] was 19.5% and the Activity [10] was “Dose-dependent effect”. The Activity [11] was 35.3%, the Activity [12] was 16.2% and the Activity [13] was 14.3%. For the same molecule, the Activity [14] was 5.2%, the Activity [15] was “Active” and the Activity [16] was “Active”. The Activity [17] was “Non-toxic”, the Activity [18] was “Active” and the IC50 [1] was 3.33 µM. It also gave an IC50 [2] of 18.4 µM, an IC50 [3] of 7.7 µM and an IC50 [4] of 18.9 µM. For the same molecule, the Activity [19] was “Active” and the Activity [20] was “Active”.
`CCOP(=O)(OCC)C(NC(=S)NC(=O)[C@]1(C)CCC[C@]2(C)c3ccc(C(C)C)cc3CC[C@@H]12)c1ccccc1F` (stereo partly specified) was tested, and the IC50 [1] was 17.8 µM, the IC50 [2] was 14 µM and the IC50 [3] was 11.4 µM. For the same molecule, the IC50 [4] was 10 µM.
In the case of `CCOP(=O)(OCC)C(NC(=S)NC(=O)[C@]1(C)CCC[C@]2(C)c3ccc(C(C)C)cc3CC[C@@H]12)c1ccc(F)cc1` (stereo partly specified), the IC50 [1] is reported as 4.39 µM, the IC50 [2] is reported as 23.4 µM and the IC50 [3] is reported as 10.3 µM. For the same molecule, the IC50 [4] was 13.5 µM.
For `CCOP(=O)(OCC)C(NC(=S)NC(=O)[C@]1(C)CCC[C@]2(C)c3ccc(C(C)C)cc3CC[C@@H]12)c1ccccc1` (stereo partly specified), the IC50 [1] was 28.1 µM, the IC50 [2] was 24.2 µM and the IC50 [3] was 15.2 µM. For the same molecule, the IC50 [4] was 12.1 µM.
`CCOP(=O)(OCC)C(NC(=S)NC(=O)[C@]1(C)CCC[C@]2(C)c3ccc(C(C)C)cc3CC[C@@H]12)c1ccc(OC)cc1` (stereo partly specified) gave an IC50 [1] of 25 µM, an IC50 [2] of 15.3 µM and an IC50 [3] of 32.1 µM. For the same molecule, the IC50 [4] was 21.4 µM.
`CCOP(=O)(OCC)C(NC(=S)NC(=O)[C@]1(C)CCC[C@]2(C)c3ccc(C(C)C)cc3CC[C@@H]12)c1ccc(Br)cc1` (stereo partly specified) gave an IC50 [1] of 18.7 µM, an IC50 [2] of 20.2 µM and an IC50 [3] of 24 µM. It also gave an IC50 [4] of 14 µM.
For `O=c1[nH]cc(F)c(=O)[nH]1` [FLUOROURACIL], the Activity [5] was 28.07%, the Activity [6] was 0% and the Activity [7] was 71.93%. The Activity [21] was 16.8%, the Activity [22] was 6.5% and the Activity [23] was “Active”. The IC50 [3] was 30 µM.
For `CCOP(=O)(OCC)C(NC(=S)NC(=O)[C@]1(C)CCC[C@]2(C)c3ccc(C(C)C)cc3CC[C@@H]12)c1ccccc1Cl` (stereo partly specified), the IC50 [1] was 30.7 µM, the IC50 [2] was 19.6 µM and the IC50 [3] was 24.9 µM. It also gave an IC50 [4] of 15.3 µM.
`CCOP(=O)(OCC)C(NC(=S)NC(=O)[C@]1(C)CCC[C@]2(C)c3ccc(C(C)C)cc3CC[C@@H]12)c1ccc(Cl)cc1` (stereo partly specified) gave an IC50 [1] of 19.7 µM, an IC50 [2] of 12.7 µM and an IC50 [3] of 26.5 µM. It also gave an IC50 [4] of 14.5 µM.
Work on `CCOP(=O)(OCC)C(NC(=S)NC(=O)[C@]1(C)CCC[C@]2(C)c3ccc(C(C)C)cc3CC[C@@H]12)c1ccc(C)cc1` (stereo partly specified) yielded an IC50 [1] of 26.4 µM, an IC50 [2] of 21.9 µM and an IC50 [3] of 30 µM. For the same molecule, the IC50 [4] was 14.1 µM.
In the case of `CCOP(=O)(OCC)C(NC(=S)NC(=O)[C@]1(C)CCC[C@]2(C)c3ccc(C(C)C)cc3CC[C@@H]12)c1ccc2ccccc2c1` (stereo partly specified), the IC50 [1] is reported as 22.7 µM, the IC50 [2] is reported as 45.7 µM and the IC50 [3] is reported as greater than 50 µM. It also gave an IC50 [4] greater than 50 µM.
In the case of `CCOP(=O)(OCC)C(NC(=S)NC(=O)[C@]1(C)CCC[C@]2(C)c3ccc(C(C)C)cc3CC[C@@H]12)c1cccc(OC)c1` (stereo partly specified), the IC50 [1] is reported as 15.8 µM, the IC50 [2] is reported as 29.6 µM and the IC50 [3] is reported as 18 µM. The IC50 [4] was 9.96 µM.
In the case of `CCOP(=O)(OCC)C(NC(=S)NC(=O)[C@]1(C)CCC[C@]2(C)c3ccc(C(C)C)cc3CC[C@@H]12)c1ccccc1Br` (stereo partly specified), the IC50 [1] is reported as 18.6 µM, the IC50 [2] is reported as 22.2 µM and the IC50 [3] is reported as 27.1 µM. The IC50 [4] was 17.4 µM.
